Source: US4118561A, “7-(Substituted)-7H-pyrrolo[3,2-f]quinazoline-1,3-diamines” (priority 1977, dated 1978)
Values after ≈ are worked out from the molar mass of the structure shown. Like-named read-outs stand apart in the source and are kept apart here.

Assays:
[1] = tested on: S. aureus 53-180; assay: In vitro antibacterial activity (MIC), S. aureus 53-180; conditions: Staphylococcus aureus, 53180, 18 h
[2] = Antimalarial blood schizonticidal test in mice; format: in vivo, Plasmodium berghei (infected ICR/HA Swiss mice); design: ΔMST (increase in mean survival time): unit: days; conditions: mouse, in vivo, sc, single dose, read-out: Highest Non-Lethal Dose
Excerpt: (§1) In addition, the invention provides compounds which have antimalarial activity in vivo as evidenced by a standard blood schizonticidal test in mice infected with Plasmodium berghei KBG 173.
(§2) Utilizing young ICR/HA Swiss mice and a standard inoculum of Plasmodium berghei KBG 173, it is possible to produce a uniform disease fatal to 100% of untreated animals within 6 to 8 days with a mean survival time of 6.2 days. Test animals weigh from 18 to 22 grams but weight variations in any given experimental or control group are confined to 2-3 grams. All animals in any given test are approximately of the same age. Animals on test are housed in metal-topped plastic cages, given a standard laboratory diet and water ad libitum.
(§3) Test animals receive an intraperitoneal injection of 0.5 ml. of 1:100 dilution of heparinized heart's blood with a minimum of 90% parasitized cells (4 × 10^7 cells), drawn from donor mice infected one week earlier with Plasmodium berghei. The donor strain is maintained by weekly passages in separate groups of mice inoculated with a 0.5 ml. of 1:500 dilution of heparinized heart's blood.
(§4) Test compounds are administered after dissolution or suspension in peanut oil. A single dose is given subcutaneously 72 hours after the mice are infected with Plasmodium berghei. At this time a 10-15 percent parasitemia has developed; the disease is well established but has not produced sufficient debility to alter the response of the host to toxic effects of the drug on test. Since treatment is withheld for three days to permit the infection to become well established and death occurs in untreated controls within 6-8 days, it is felt that this system presents a candidate compound with the maximum challenge. In order to check factors such as changes in the infectivity of Plasmodium berghei or in the susceptibility of the host or to detect technical errors, a group of infected animals treated with pyrimethamine at dose levels producing definite increases in survival time is included in a positive control in every experiment.
(§5) In each experiment test compounds are administered in graded dosages. […] However, if an active drug is toxic for the host, its toxicity may become a limiting factor; continued increases in dose levels also increase the toxic effects and may result in the diminution of survival times. Deaths prior to the sixth day, when untreated controls begin to die, are regarded as nonparasitic and become the basis for toxicity evaluations. […] In calculating mean survival time, toxic deaths and 60-day survivors are not included.
(§6) Compounds are considered active which produce a cure in at least one test animal or which produce significant increases in mean survival times of the treated animals as compared with the mean survival times of untreated controls, provided that no drug related deaths (toxicity) are noted at the active dose.

[3] = tested on: Plasmodium berghei KBG 173; assay: Antimalarial blood schizonticidal test in mice; format: in vivo, Plasmodium berghei (infected ICR/HA Swiss mice); design: ΔMST (increase in mean survival time): unit: days; conditions: for ED100 / minimal effective dose: Plasmodium berghei, sc, single dose; for ED100: read-out: Lowest Dose Curing All Mice; for minimal effective dose: read-out: Min. Curing Dose; for Cure/Treat at Min. Curing Dose: at the Min. Curing Dose
Excerpt: as §1, §2, §3, §4, §5, §6

[4] = tested on: E. coli 9637; assay: In vitro antibacterial activity (MIC), E. coli 9637; conditions: Escherichia coli, 9637, 18 h
[5] = tested on: S. paratyphi 11737; assay: In vitro antibacterial activity (MIC), S. paratyphi 11737; format: cell-based; conditions: Salmonella enterica, 18 h
[6] = tested on: S. aureus Smith; assay: In vitro antibacterial activity (MIC), S. aureus Smith; conditions: Staphylococcus aureus, 18 h
[7] = tested on: N. catarrhalis 8193; assay: In vitro antibacterial activity (MIC), N. catarrhalis 8193; conditions: 18 h
[8] = tested on: K. pneumoniae 10031; assay: In vitro antibacterial activity (MIC), K. pneumoniae 10031; conditions: Klebsiella pneumoniae, 10031, 18 h
[9] = tested on: P. vulgaris 6896; assay: In vitro antibacterial activity (MIC), P. vulgaris 6896; conditions: Proteus vulgaris, 6896, 18 h
[10] = infected mice, highest dose with no deaths for any reason
[11] = alive on day 14 considered cured, no 60-day data
[12] = 336 h, s.c., alive on day 14 considered cured, no 60-day data
[13] = s.c., alive on day 14 considered cured
[14] = this is the highest dose tested

Structure (SMILES) | MIC [1] [µg/mL] | MTD [2, 10] [mg/kg] | ED100 ([3]; 1440 h, s.c., 60-day survivors) [mg/kg] | minimal effective dose ([3]; 1440 h, s.c., 60-day survivors) [mg/kg] | Cure/Treat at Min. Curing Dose ([3]; s.c., 60-day survivors) | MIC [4] [µg/mL] | MIC [5] [µg/mL] | MIC [6] [µg/mL] | MIC [7] [µg/mL] | MIC [8] [µg/mL] | MIC [9] [µg/mL] | ΔMST (increase in mean survival time) ([3]; s.c., dose 5 mg. per kg.) | other results
Nc1nc(N)c2c(ccc3c2ccn3Cc2ccccc2C(F)(F)F)n1 [Example 11] | 0.244 (≈ 0.683 µM) | 40 | 10 | 1.25 | 1/5 | 1.95 (≈ 5.46 µM) | 3.9 (≈ 10.9 µM) | 0.488 (≈ 1.37 µM) | < 0.0009 | 0.122 (≈ 0.341 µM) | 62.5 (≈ 175 µM) |  | ΔMST (increase in mean survival time) ([3]; s.c., dose 0.63 mg. per kg.): 7.3
N#Cc1ccccc1Cn1ccc2c3c(N)nc(N)nc3ccc21 [Example 14] | 0.244 (≈ 0.776 µM) | 160 | 40 | 10 | 1/5 | 0.244 (≈ 0.776 µM) | 0.488 (≈ 1.55 µM) | 0.244 (≈ 0.776 µM) | 0.061 (≈ 0.194 µM) | 0.122 (≈ 0.388 µM) | 1.95 (≈ 6.2 µM) |  | ΔMST (increase in mean survival time) ([3]; s.c., dose 10 mg. per kg.): 8.9
Cc1cccc(Cn2ccc3c4c(N)nc(N)nc4ccc32)c1 [Example 20] | 0.488 (≈ 1.61 µM) | 320 | 20 | 5 | 4/5 | 0.488 (≈ 1.61 µM) | 1.95 (≈ 6.43 µM) | 0.976 (≈ 3.22 µM) | 0.031 (≈ 0.102 µM) | 1.95 (≈ 6.43 µM) | 1.95 (≈ 6.43 µM) | 6.9 | 
Cc1ccc(Cn2ccc3c4c(N)nc(N)nc4ccc32)c(C)c1 [Example 22] | 0.244 (≈ 0.769 µM) |  |  |  |  | 0.976 (≈ 3.08 µM) | 3.4 (≈ 10.7 µM) | 0.244 (≈ 0.769 µM) | 0.0152 (≈ 0.0479 µM) | 0.244 (≈ 0.769 µM) | 7.81 (≈ 24.6 µM) |  | MTD [2, 11]: 80 mg/kg; ED100 [3, 12]: 5 mg/kg; minimal effective dose [3, 12]: 5 mg/kg; Cure/Treat at Min. Curing Dose [3, 13]: 5/5; ΔMST (increase in mean survival time) ([3]; s.c., dose 2.5 mg. per kg., alive on day 14 considered cured, no 60-day data): 7.6
Cc1cc(C)c(Cn2ccc3c4c(N)nc(N)nc4ccc32)c(C)c1 [Example 27] | 250 (≈ 754 µM) | 80 | 40 | 5 | 3/5 | > 250 | > 250 | 250 (≈ 754 µM) | 0.244 (≈ 0.736 µM) | 31.3 (≈ 94.4 µM) | > 250 |  | ΔMST (increase in mean survival time) ([3]; s.c., dose 2.5 mg. per kg.): 7.3
CC(C)c1ccc(Cn2ccc3c4c(N)nc(N)nc4ccc32)cc1 [Example 29] | 0.976 (≈ 2.94 µM) | 20 | 20 | 10 | 1/5 | 7.81 (≈ 23.6 µM) | 62.5 (≈ 189 µM) | 1.95 (≈ 5.88 µM) | 0.244 (≈ 0.736 µM) | 0.488 (≈ 1.47 µM) | 62.5 (≈ 189 µM) |  | ΔMST (increase in mean survival time) ([3]; s.c., dose 10 mg. per kg.): 10.2
CSc1ccc(Cn2ccc3c4c(N)nc(N)nc4ccc32)cc1 [Example 31] | 0.488 (≈ 1.45 µM) |  |  |  |  | 0.488 (≈ 1.45 µM) | 3.9 (≈ 11.6 µM) | 0.976 (≈ 2.91 µM) | 0.0152 (≈ 0.0453 µM) | 0.122 (≈ 0.364 µM) | 31.3 (≈ 93.3 µM) |  | MTD [2, 11]: 40 mg/kg; ED100 [3, 12]: 20 mg/kg; minimal effective dose [3, 12]: 2.5 mg/kg; Cure/Treat at Min. Curing Dose [3, 13]: 4/5; ΔMST (increase in mean survival time) ([3]; s.c., dose 1.25 mg. per kg., alive on day 14 considered cured, no 60-day data): 6.2
COc1ccccc1Cn1ccc2c3c(N)nc(N)nc3ccc21 [Example 32] | 0.976 (≈ 3.06 µM) | 160 | 40 | 10 | 3/5 | 1.95 (≈ 6.11 µM) | 7.81 (≈ 24.5 µM) | 0.976 (≈ 3.06 µM) | 0.061 (≈ 0.191 µM) | 0.244 (≈ 0.764 µM) | 3.9 (≈ 12.2 µM) |  | ΔMST (increase in mean survival time) ([3]; s.c., dose 10 mg. per kg.): 10.5
COc1cccc(Cn2ccc3c4c(N)nc(N)nc4ccc32)c1 [Example 33] | 0.976 (≈ 3.06 µM) | 40 | 40 | 10 | 1/5 | 0.488 (≈ 1.53 µM) | 7.81 (≈ 24.5 µM) | 3.9 (≈ 12.2 µM) | 0.976 (≈ 3.06 µM) | 0.488 (≈ 1.53 µM) | 7.81 (≈ 24.5 µM) | 7.6 | 
Nc1nc(N)c2c(ccc3c2ccn3Cc2cccnc2)n1 [Example 44] | 0.976 (≈ 3.36 µM) | 160 | 160 | 80 | 3/5 | 0.488 (≈ 1.68 µM) | 0.488 (≈ 1.68 µM) | 7.81 (≈ 26.9 µM) | < 0.0009 | 0.122 (≈ 0.42 µM) | 7.81 (≈ 26.9 µM) |  | ΔMST (increase in mean survival time) ([3]; s.c., dose 40 mg. per kg.): 8.3
Nc1nc(N)c2c(ccc3c2ccn3Cc2cccc3ccccc23)n1 [Example 47] | 0.976 (≈ 2.88 µM) | 80 | 20 | 5 | 2/5 | 15.6 (≈ 46 µM) | 62.5 (≈ 184 µM) | 3.9 (≈ 11.5 µM) | 0.0019 (≈ 0.0056 µM) | 0.976 (≈ 2.88 µM) | 31.3 (≈ 92.2 µM) | 9.2 | 
Nc1nc(N)c2c(ccc3c2ccn3Cc2ccc3ccccc3c2)n1 [Example 48] | 125 (≈ 368 µM) | 1160 | 40 | 20 | 4/5 | 250 (≈ 737 µM) | > 250 | 125 (≈ 368 µM) | 0.244 (≈ 0.719 µM) | 7.81 (≈ 23 µM) | > 250 | 7.3 | 
Cc1ccc2ccccc2c1Cn1ccc2c3c(N)nc(N)nc3ccc21 [Example 49] | 125 (≈ 354 µM) | 80 | 20 |  | 5/5 | > 250 | > 250 | 125 (≈ 354 µM) | 0.122 (≈ 0.345 µM) | 15.6 (≈ 44.1 µM) | > 250 |  | minimal effective dose ([3]; this is the lowest dose tested): 20 mg/kg
Nc1nc(N)c2c(ccc3c2ccn3Cc2cccc3cccnc23)n1 [Example 51] | 0.122 (≈ 0.358 µM) | 40 | 20 | 5 | 1/5 | 0.244 (≈ 0.717 µM) | 1.95 (≈ 5.73 µM) | 0.244 (≈ 0.717 µM) | 0.0152 (≈ 0.0447 µM) | 0.122 (≈ 0.358 µM) | 7.81 (≈ 22.9 µM) | 6.4 | 
CCCCCCCn1ccc2c3c(N)nc(N)nc3ccc21 [Example 53] | 15.6 (≈ 52.5 µM) |  | 640 | 320 | 2/5 | 31.3 (≈ 105 µM) | 62.5 (≈ 210 µM) | 31.3 (≈ 105 µM) | 0.488 (≈ 1.64 µM) | 3.9 (≈ 13.1 µM) | 250 (≈ 841 µM) |  | MTD [2, 14]: 640 mg/kg; ΔMST (increase in mean survival time) ([3]; s.c., dose 160 mg. per kg.): 9.5
Nc1nc(N)c2c(ccc3c2ccn3CCCc2ccccc2)n1 [Example 56] | 250 (≈ 788 µM) |  | 320 | 160 | 3/5 | 250 (≈ 788 µM) | 250 (≈ 788 µM) | 250 (≈ 788 µM) | 250 (≈ 788 µM) | 250 (≈ 788 µM) | 250 (≈ 788 µM) |  | MTD [2, 14]: 640 mg/kg; ΔMST (increase in mean survival time) ([3]; s.c., dose 80 mg. per kg.): 10.7
